Test results taken from patent US11993603B2, “Preparation for 6-amino-1H-pyrazolo[3,4-d]pyrimidine-based JAK kinase inhibitor and application thereof” (INSTITUTE OF MATERIA MEDICA, CHINESE ACADEMY OF MEDICAL …, priority 2018, dated 2024).
Read-outs that look alike come from different tables or passages of the source.

What was measured:
Format in all cases: biochemical
JAK-2 = JAK-2 (Homo sapiens (Human), UniProt O60674); experiment: Inhibition test on JAK-2 kinase (FRET peptide substrate assay); conditions: kinase 1 nM, 1 h at room temperature
From the text: (§1) Experiment Example (Inhibition Tests on JAK-1, JAK-2 and JAK-3 Kinases)
(§2) To evaluate the inhibitory activity of the compound on JAK-1, JAK-2 and JAK-3 kinases
(§3) A proteolytic enzyme is coupled to exert different proteolysis on a specific phosphorylated and nonphosphorylated peptide substrate based on fluorescence resonance energy transfer (FRET). Both ends of the peptide substrate were respectively labeled FRET energy donor coumarin and energy receptor fluorescein, and at this time, the donor was stimulated to produce energy transfer when the donor is close to a receptor.
(§4) In Kinase Reaction, JAK-1, JAK-2 or JAK-3 may transfer γ-phosphoric acid in ATP onto a single tyrosine residue of a peptide substrate; and there were JAK-1, JAK-2 or JAK-3 inhibitors in the system, γ-phosphoric acid groups on ATP would be not transferred onto the peptide substrate, thus resulting in the failure of phosphorylation. An evaluation experiment was designed based on the principle, a peptide substrate was designed with kinase phosphorylation sites, namely, protein restriction enzyme cutting sites; and both ends thereof were respectively connected with 2 fluorophores as a donor and a receptor respectively; if the kinase kept activity in the system, a γ-phosphonic acid group was transferred onto restriction enzyme cutting sites of the substrate, so that the γ-phosphonic acid group would not be cut and separated into two segments by a protease; moreover, under the stimulation of a laser having a specific wavelength, energy from a segment of fluorescence would be transferred onto another end of fluorophores, thus emitting energy. Otherwise, after kinase activity was inhibited, phosphoric acid groups would be not transferred, and restriction enzyme cutting sites in the substrate would be cut by a […] in the system to separate the substrate into two segments, thereby no energy transfer of fluorescence occurred. Based on this, the activity of the kinase was evaluated.
(§5) In this experiment, a 10 μl kinase reaction system was selected, firstly, 2.5 μl kinase (concentration: 1 nM), 2.5 μl peptide substrate (concentration: 2 μM), 2.5 μl ATP (concentration: […]) and 2.5 μl compound were added to each system for reaction for 1 h at room temperature, and then a 5 μl test solution was added for reaction for 1 h at room temperature, then a 5 μl stop buffer was added. A microplate reader (Synergy H1, BioTek, USA) was used to measure fluorescence intensity (emission intensity of coumarin at 445 nm and emission intensity of fluorescein at 520 nm were detected under the stimulation of 400 nm). The inhibitory activity of each compound was calculated, where it was believed that fluorescence intensity of a well not containing the kinase was 100% inhibited.

JAK-3 = JAK-3 (Homo sapiens (Human), UniProt P52333); experiment: Inhibition test on JAK-3 kinase (FRET peptide substrate assay)
From the text: as §1, §2, §3, §4, §5

JAK-1 = JAK-1 (Homo sapiens (Human), UniProt P23458); experiment: Inhibition test on JAK-1 kinase (FRET peptide substrate assay); conditions: kinase 1 nM, 1 h at room temperature
From the text: as §1, §2, §3, §4, §5

[1] = kinase 1 nM, 1 h at room temperature, read-out: IC50 (nM) JAK-3

Sequence of JAK-2 (O60674 whole entry): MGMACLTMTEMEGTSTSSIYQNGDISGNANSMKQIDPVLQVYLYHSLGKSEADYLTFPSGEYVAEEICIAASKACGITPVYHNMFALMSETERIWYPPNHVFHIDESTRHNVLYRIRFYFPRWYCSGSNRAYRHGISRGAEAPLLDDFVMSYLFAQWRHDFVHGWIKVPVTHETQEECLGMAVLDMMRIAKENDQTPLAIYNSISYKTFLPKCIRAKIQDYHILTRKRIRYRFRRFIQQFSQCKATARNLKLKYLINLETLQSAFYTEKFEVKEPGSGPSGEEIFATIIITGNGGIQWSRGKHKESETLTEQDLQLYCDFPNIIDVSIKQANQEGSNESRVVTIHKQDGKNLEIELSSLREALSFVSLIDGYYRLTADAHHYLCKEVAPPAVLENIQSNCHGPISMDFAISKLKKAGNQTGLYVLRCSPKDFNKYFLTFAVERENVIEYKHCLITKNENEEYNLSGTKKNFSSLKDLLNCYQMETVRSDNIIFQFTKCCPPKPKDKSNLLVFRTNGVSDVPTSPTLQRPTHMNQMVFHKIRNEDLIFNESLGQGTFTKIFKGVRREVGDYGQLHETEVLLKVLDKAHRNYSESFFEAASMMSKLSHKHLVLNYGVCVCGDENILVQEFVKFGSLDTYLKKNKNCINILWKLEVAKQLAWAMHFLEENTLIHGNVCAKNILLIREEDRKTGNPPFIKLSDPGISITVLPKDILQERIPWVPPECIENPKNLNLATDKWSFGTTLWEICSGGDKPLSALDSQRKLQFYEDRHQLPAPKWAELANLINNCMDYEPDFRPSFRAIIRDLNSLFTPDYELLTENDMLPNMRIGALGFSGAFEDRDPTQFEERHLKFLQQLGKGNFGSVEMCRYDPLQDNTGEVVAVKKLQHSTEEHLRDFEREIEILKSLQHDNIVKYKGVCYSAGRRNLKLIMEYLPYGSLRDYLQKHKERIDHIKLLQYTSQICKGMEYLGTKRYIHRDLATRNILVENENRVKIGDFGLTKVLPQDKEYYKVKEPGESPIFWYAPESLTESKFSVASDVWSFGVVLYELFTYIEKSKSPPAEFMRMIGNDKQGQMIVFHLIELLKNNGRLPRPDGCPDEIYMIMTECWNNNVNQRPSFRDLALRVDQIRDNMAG
Sequence of JAK-3 (P52333 whole entry): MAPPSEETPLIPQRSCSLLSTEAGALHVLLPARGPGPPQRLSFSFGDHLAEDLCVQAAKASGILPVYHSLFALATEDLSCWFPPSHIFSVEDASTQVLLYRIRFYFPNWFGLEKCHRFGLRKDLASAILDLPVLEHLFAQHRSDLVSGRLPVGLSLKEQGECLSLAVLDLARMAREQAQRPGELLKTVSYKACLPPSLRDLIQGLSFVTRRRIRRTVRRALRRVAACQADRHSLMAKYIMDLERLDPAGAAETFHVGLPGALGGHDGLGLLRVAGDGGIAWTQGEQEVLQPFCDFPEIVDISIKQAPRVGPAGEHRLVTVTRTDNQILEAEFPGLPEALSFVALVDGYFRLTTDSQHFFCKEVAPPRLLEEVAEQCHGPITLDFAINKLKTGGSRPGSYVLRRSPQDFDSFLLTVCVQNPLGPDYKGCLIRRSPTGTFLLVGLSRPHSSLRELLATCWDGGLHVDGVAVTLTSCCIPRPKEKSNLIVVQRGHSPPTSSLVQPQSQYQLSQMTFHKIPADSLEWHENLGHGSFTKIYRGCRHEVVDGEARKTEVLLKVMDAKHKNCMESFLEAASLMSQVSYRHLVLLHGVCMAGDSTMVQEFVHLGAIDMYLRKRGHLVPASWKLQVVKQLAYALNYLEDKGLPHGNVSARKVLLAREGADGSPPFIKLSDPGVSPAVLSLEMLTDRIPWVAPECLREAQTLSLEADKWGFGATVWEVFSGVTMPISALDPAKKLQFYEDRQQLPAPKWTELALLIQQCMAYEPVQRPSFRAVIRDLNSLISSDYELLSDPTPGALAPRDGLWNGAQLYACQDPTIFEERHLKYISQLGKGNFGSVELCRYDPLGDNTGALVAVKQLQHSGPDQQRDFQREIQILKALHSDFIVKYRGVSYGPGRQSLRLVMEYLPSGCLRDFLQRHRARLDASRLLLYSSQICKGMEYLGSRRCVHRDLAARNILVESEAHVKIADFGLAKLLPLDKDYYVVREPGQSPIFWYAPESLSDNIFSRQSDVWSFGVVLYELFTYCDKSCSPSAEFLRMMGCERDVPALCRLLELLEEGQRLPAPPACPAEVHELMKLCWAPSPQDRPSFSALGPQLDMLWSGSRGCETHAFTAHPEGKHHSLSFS
Sequence of JAK-1 (P23458 whole entry): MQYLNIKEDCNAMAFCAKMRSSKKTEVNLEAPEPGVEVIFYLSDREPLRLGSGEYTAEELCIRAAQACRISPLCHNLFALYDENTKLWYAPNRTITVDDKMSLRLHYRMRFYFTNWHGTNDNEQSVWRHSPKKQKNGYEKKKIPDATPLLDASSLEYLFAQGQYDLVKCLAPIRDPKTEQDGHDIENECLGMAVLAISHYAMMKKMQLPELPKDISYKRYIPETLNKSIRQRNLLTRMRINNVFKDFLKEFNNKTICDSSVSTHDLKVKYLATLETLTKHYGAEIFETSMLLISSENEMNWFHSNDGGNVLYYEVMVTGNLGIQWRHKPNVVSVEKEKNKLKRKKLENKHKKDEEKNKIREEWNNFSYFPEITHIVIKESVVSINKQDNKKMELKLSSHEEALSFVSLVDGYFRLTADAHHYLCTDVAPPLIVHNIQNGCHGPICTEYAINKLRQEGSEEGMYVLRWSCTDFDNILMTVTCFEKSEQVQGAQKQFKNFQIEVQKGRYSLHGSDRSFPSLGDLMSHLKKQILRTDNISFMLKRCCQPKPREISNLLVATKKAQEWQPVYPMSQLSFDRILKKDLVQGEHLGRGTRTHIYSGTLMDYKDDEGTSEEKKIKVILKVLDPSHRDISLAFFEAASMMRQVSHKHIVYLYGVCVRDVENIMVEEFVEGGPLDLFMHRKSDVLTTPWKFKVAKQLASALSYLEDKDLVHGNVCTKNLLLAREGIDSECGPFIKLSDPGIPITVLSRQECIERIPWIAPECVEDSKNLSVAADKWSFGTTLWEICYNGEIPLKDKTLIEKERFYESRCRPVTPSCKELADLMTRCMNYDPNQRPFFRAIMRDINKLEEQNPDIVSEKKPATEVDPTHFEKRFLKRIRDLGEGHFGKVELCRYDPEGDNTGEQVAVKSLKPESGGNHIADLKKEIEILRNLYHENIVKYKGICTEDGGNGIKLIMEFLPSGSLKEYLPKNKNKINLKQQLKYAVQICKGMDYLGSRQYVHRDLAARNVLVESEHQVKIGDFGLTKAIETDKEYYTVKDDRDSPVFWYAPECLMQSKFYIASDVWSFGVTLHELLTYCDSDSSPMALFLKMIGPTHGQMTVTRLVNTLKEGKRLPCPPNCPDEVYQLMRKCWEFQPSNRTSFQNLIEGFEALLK

Row | SMILES | IC50 (JAK-2) [nM] | IC50 (JAK-3; differs from Table 5, read-out: JAK-3 inhibitory activity IC50) [nM] | IC50 (JAK-3; [1]) [nM] | IC50 (JAK-1) [nM]
1 | C=CC(=O)Nc1cccc(Cn2ncc3cnc(Nc4cnn(CCOC)c4)nc32)c1 [Example 1, N-(3-((6-((1-(2-methoxyethyl)-1H-pyrazol-4-yl)amino)-1H-pyrazolo[3,4-d]pyrimidine-1-yl)methyl)phenyl)acrylamide] | 747 | 0.085 | 1.4 | 
2 | C=CC(=O)Nc1cccc(Cn2ncc3cnc(Nc4cnn(C)c4)nc32)c1 [Example 2] | 941 |  | 2.2 | 1390
3 | C=CC(=O)Nc1cccc(Cn2ncc3cnc(Nc4cnn(CCO)c4)nc32)c1 [Example 3, N-(3-((6-((1-(2-hydroxyethyl)-1H-pyrazol-4-yl)amino)-1H-pyrazolo[3,4-d]pyrimidin-1-yl)methyl)phenyl)acrylamide] | 4220 |  | 0.13 | 829
4 | C=CC(=O)Nc1cccc(Cn2ncc3cnc(Nc4ccccc4)nc32)c1 [Example 4, N-(3-((6-aniline-1H-pyrazolo[3,4-d]pyrimidin-1-yl)methyl)phenyl)acrylamide] | 1120 |  | 1.1 | 901
5 | C=CC(=O)Nc1cccc(Cn2ncc3cnc(Nc4ccc(F)cc4)nc32)c1 [Example 5, N-(3-((6-((4-fluorophenyl)amino)-1H-pyrazolo[3,4-d]pyrimidin-1-yl)methyl)phenyl)acrylamide] | 1800 |  | 3.7 | 1580
6 | C=CC(=O)Nc1cccc(Cn2ncc3cnc(Nc4ccc(N5CCOCC5)cc4)nc32)c1 [Example 6, N-(3-((6-((4-morpholinylphenyl)amino)-1H-pyrazolo[3,4-d]pyrimidin-1-yl)methyl)phenyl)acrylamide] | 3100 |  | 0.1 | 1000
7 | C=CC(=O)Nc1cccc(Cn2ncc3cnc(Nc4ccc(N5CCN(C)CC5)cc4)nc32)c1 [Example 7, N-(3-((6-((4-(4-methylpiperazin-1-yl)phenyl)amino)-1H-pyrazolo[3,4-d]pyrimidin-1-yl)methyl)phenyl)acrylamide] | 1080 |  | 6.1 | 942
8 | C/C=C/C(=O)Nc1cccc(Cn2ncc3cnc(Nc4cnn(CCOC)c4)nc32)c1 [Example 8, N-(3-((6-((1-(2-methoxy-ethyl)-1H-pyrazol-4-yl)amino)-1H-pyrazolo[3,4-d]pyrimidine-1-yl)methyl)phenyl)but-2-enamide] | 610 |  | 3 | 701
9 | C/C=C/C(=O)Nc1cccc(Cn2ncc3cnc(Nc4cnn(C)c4)nc32)c1 [Example 9, N-(3-((6-((1-methyl-1H-pyrazol-4-yl)amino)-1H-pyrazolo[3,4-d]pyrimidin-1-yl)methyl)phenyl)but-2-enamide] | 860 |  | 2.1 | 618
10 | C/C=C/C(=O)Nc1cccc(Cn2ncc3cnc(Nc4cnn(CCO)c4)nc32)c1 [Example 10, N-(3-((6-((1-(2-hydroxyethyl)-1H-pyrazol-4-yl)amino)-1H-pyrazolo[3,4-d]pyrimidin-1-yl)methyl)phenyl)but-2-enamide] | 960 |  | 0.7 | 940
11 | C/C=C/C(=O)Nc1cccc(Cn2ncc3cnc(Nc4ccccc4)nc32)c1 [Example 11, N-(3-((6-aniline-1H-pyrazolo[3,4-d]pyrimidin-1-yl)methyl)phenyl)but-2-enamide] | 690 |  | 1.4 | 830
12 | C/C=C/C(=O)Nc1cccc(Cn2ncc3cnc(Nc4ccc(F)cc4)nc32)c1 [Example 12, N-(3-((6-((4-fluorophenyl)amino)-1H-pyrazolo[3,4-d]pyrimidin-1-yl)methyl)phenyl)but-2-enamide] | 2310 |  | 0.2 | 1030
13 | C/C=C/C(=O)Nc1cccc(Cn2ncc3cnc(Nc4ccc(N5CCOCC5)cc4)nc32)c1 [Example 13, N-(3-((6-((4-morpholinylphenyl)amino)-1H-pyrazolo[3,4-d]pyrimidin-1-yl)methyl)phenyl)but-2-enamide] | 710 |  | 0.4 | 890
